Test results reported in patent publication US12655171B2, “Compounds for activating invariant natural killer T-cells and methods of use in eliminating inflammatory senescent cells” (Deciduous Therapeutics, Inc., priority 2021, dated 2026).
“Also recorded” adds a separate entry of the source.

Columns and labels:
serum IFNγ = assay: In vivo serum IFNγ (ELISA) in C57BL/6J mice; settings: 2 μg I.P.; twenty hours post-injection; FIG. 4A
Procedure: (§1) In order to determine the expansion induced by the molecules described herein, molecules were injected into C57BL/6J mice. Serum IFNγ levels and the expansion of iNKT cells within splenocytes was measured 4 days post-IP injection.
(§2) Eight weeks old C57BL/6J mice were injected (I.P.) with 2 μg of α-GalCer or DCD molecules. Molecules were either dissolved in DMSO at a 5 mg/mL stock solution, or formulated into liposomes through thin-film rehydration, then extrusion through 200 nm filters. Liposome-based formulations were constructed using soy phosphatidylcholine, cholesterol, and DCD or α-GalCer in a 2:1:0.15 ratio. Twenty hours post-injection, blood was collected from the tail to measure the level of serum IFNγ using an ELISA kit from Biolegend. Four days post-injection, the mice were sacrificed and the spleenocytes were isolated. The percentage of iNKT cells within the spleens was measured using flow cytometry, selecting for live cells and mouse CD1d-α-GalCer tetramer+ cells.

mouse iTCR = assay: In vitro activation of mouse iTCR, DN3.2 iNKT hybridoma with drug-loaded BWSTIM cells, IL-2 secretion; format: cell-based; settings: for IL-2 secretion compared to α-GalCer: drug loaded at 0.01 μg/mL, 48 hours co-culture, FIG. 2
Procedure: In order to determine the mouse iTCR activation potential induced by the compounds described herein, a mouse iNKT hybridoma cell line (DN3.2) from the La Jolla Institute for Allergy and Immunology were used as the iNKT. The BWS147 cell line (BWSTIM) with CD80 and CD1d acted as the antigen-presenting cell.
DCD molecules or α-GalCer were both dissolved in DMSO at a 5 mg/mL stock solution. BWSTIM cells were loaded with DCD molecules or α-GalCer of varying concentrations for 4 hours at 37° C. at a concentration of 20 k cells/well in 200 μL of media in a u-bottom 96 well dish. BWSTIM cells were washed 2× with media, then incubated with DN3.2 cells at a concentration of 80 k cells/well in a u-bottom 96 well dish. Cells were co-cultured for 48 hours. Media was collected and IL-2 was measured using the CisBio HTRF ELISA detection kit.
(§3) A jurkat cell line (JiNKT) was transfected with the human iTCR, and GFP under the NFkB promoter. A BWS147 cell line (BWSTIM) was also transfected with CD80 and CD1d to act as the antigen-presenting cell. A mouse iNKT hybridoma cell line (DN3.2) was also used as the iNKT. […]
GVK molecules or α-GalCer were both dissolved in DMSO at a 5 mg/mL stock solution. BWSTIM cells were loaded with compounds for 4 hours at 37° C. at a concentration of 20 k cells/well in 200 μL of media in a u-bottom 96 well dish. BWSTIM cells were washed 2× with media, then incubated with DN3.2 cells at a concentration of 80 k cells/well in a u-bottom 96 well dish. Cells were co-cultured for 48 hours. Media was collected and IL-2 was measured using the CisBio HTRF ELISA detection kit.

human iTCR = assay: In vitro activation of human iTCR through Jurkat reporter cell line (JiNKT, GFP under NFkB promoter) with drug-loaded BWSTIM cells; format: cell-based; settings: BWSTIM loaded 4 hours, co-culture with JiNKT 18 to 24 hours; FIG. 1
Procedure: In order to determine the human iTCR activation potential induced by the compounds described herein, a jurkat cell line (JiNKT) was transfected with the human iTCR, and GFP under the NFkB promoter (cell line licensed from the Medical University of Vienna). A BWS147 cell line (BWSTIM) was also transfected with CD80 and CD1d to act as the antigen-presenting cell.
(§4) DCD molecules or α-GalCer were both dissolved in DMSO at a 5 mg/mL stock solution. BWSTIM cells were loaded with DCD molecules or α-GalCer at varying concentrations for 4 hours at 37° C. at a concentration of 20 k cells/well in 200 μL of media in a u-bottom 96 well dish. BWSTIM cells were washed 2× with media, then incubated with JiNKT cells at a concentration of 80 k cells/well in a u-bottom 96 well dish. Cells were co-cultured for 18 to 24 hours. The percentage of cells expressing high levels of GFP was measured through flow cytometry (after gating out the mCD45+ BWSTIM cells).
as §3
as §4, with “GVK” for “DCD”, “compounds” for “DCD molecules or α-GalCer at varying concentrations”, “for” for “for 18 to”, “cytometry. 1 μg/mL of molecule GVK1a, GVK1b, GVK1c, or GVK1f was incubated with BWSTIM+JiNKT, and compared to α-GalCer.” for “cytometry (after gating out the mCD45+ BWSTIM cells).”

iNKT cells [1] = assay: In vivo iNKT cell expansion in spleen of C57BL/6J mice (flow cytometry); settings: 2 μg I.P.; four days post-injection; FIG. 4B
Procedure: as §1, §2

primary human iNKT cells = assay: Cytokine secretion of primary human iNKT cells co-cultured with drug-loaded BWSTIM cells; format: cell-based; settings: BWSTIM loaded with 10 μg/mL; for IFNγ secretion compared to the no-compound control: FIG. 3A; for IL6 secretion compared to the no-compound control: FIG. 3B; for TNFα secretion compared to the no-compound control: FIG. 3C
Procedure: In order to determine the activation profile induced by the compounds described herein, primary human iNKT cells were co-cultured with drug-loaded BWSTIM cells.
Day 0: PBMCs were isolated from human blood using the STEMCELL TECHNOLOGIES™ SepMate™ PBMC isolation system. iNKT cells were then selected using the Miltenyi NKT magnetic cell separation kit.
Day 2: DCD molecules or α-GalCer were both dissolved in DMSO at a 5 mg/mL stock solution. BWSTIM cells were fixed with mitomycin C, then loaded with 10 μg/mL of DCD molecules or α-GalCer for 4 hours at 37° C. at a concentration of 20 k cells/well in 200 μL of media in a u-bottom 96 well dish. Cells were co-cultured with 80 k 6B11+ selected primary human iNKT cells.
D4: Media was collected. Cytokines were measured using the Satorious 4Plex kit on the iQue3 cytometer.
GVK molecules or α-GalCer were both dissolved in DMSO at a 5 mg/mL stock solution. BWSTIM cells were loaded with compounds for 4 hours at 37° C. at a concentration of 20 k cells/well in 200 μL of media in a u-bottom 96 well dish. Cells were co-cultured with 100 k 6B11+ selected primary human iNKT cells. Media was collected 2 days later. Cytokines were measured using the Satorious 4Plex kit on the iQue3 cytometer.

iNKT cells [2] = assay: Diet induced obesity (HFD) mouse model: iNKT cell expansion in spleen or eWAT; format: in vivo, C57BL/6J mice; settings: HFD mice, I.P. 2 g; four days post-injection; FIG. 5A
Procedure: (§5) Senescence is a feature of pre-adipocytes in obese individuals. To study the efficacy of the molecules described herein in decreasing senescence in fat, a diet induced obesity high fat diet (HFD) mouse model was used. 22-week-old HFD mice were injected with α-GalCer as a control and compared with the compounds of the present disclosure. The blood and spleen (or adipose tissue) were collected to measure iNKT activation and expansion, respectively. Cells in the eWAT (adipose tissue) were also collected and measured for % senescent cells. HFD mice were compared to non-HFD (normal diet) mice.
(§6) 22-week-old C57BL/6J mice on a chow or high-fat diet (HFD) were injected (I.P) with […] of α-GalCer, compound DCD-101 or compound DCD-154. Molecules were either dissolved in DMSO at a 5 mg/mL stock solution, or formulated into liposomes through thin-film rehydration, then extrusion through 200 nm filters. Liposome-based formulations were constructed using soy phosphatidylcholine, cholesterol, and DCD or α-GalCer in a 2:1:0.15 ratio. Two or twenty hours post-injection, blood was collected from the tail to measure the level of IFNγ using ELISA. Four days post-injection, mice were sacrificed to collect eWAT or spleen. Spleen was used to measure the number of iNKT cells, and eWAT was used to measure the number of iNKT cells and senescent cells using flow cytometry. iNKT cells were identified in the digested adipose tissue by gating live cells and mouse CD1d-α-GalCer tetramer+ cells. Senescent cells were measured withing the processes adipose tissue by selecting mCD45− cells, and C12FDG^HIGH cells.

IFNγ = assay: Diet induced obesity (HFD) mouse model: serum IFNγ (ELISA); format: in vivo, C57BL/6J mice
Procedure: as §5, §6

senescent cells in eWAT = assay: Diet induced obesity (HFD) mouse model: senescent cells (C12FDG+) in eWAT; format: in vivo, C57BL/6J mice; settings: HFD mice, four days post-injection; FIG. 5E
Procedure: as §5, §6

SMILES	average serum IFNγ compared to α-GalCer (serum IFNγ)	IL-2 secretion compared to α-GalCer (mouse iTCR)	EC50 of the dose response based on percentage GFP+ cells, compared to α-GalCer (human iTCR)	IFNγ secretion compared to the no-compound control (primary human iNKT cells)	IL6 secretion compared to the no-compound control (primary human iNKT cells)	TNFα secretion compared to the no-compound control (primary human iNKT cells)	also measured
CCCCCCCCCCCCCCCCCC[Si](C)(C)CCCCCCC(=O)N[C@@H](COC1OC(CO)C(O)C(O)C1O)[C@H](O)[C@H](O)CCCCCCCCCCCCCC (stereo partly drawn) [DCD-152]	higher than the average serum IFNγ of C57BL/6J mice treated with α-GalCer	–	–	–	–	–	–
CCCCCCCCCCCCCC[C@@H](O)[C@@H](O)[C@H](COC1OC(CO)C(O)C(O)C1O)NC(=O)CCCCCCCCCCC12CCC(CC1)CC2 (stereo partly drawn) [DCD-102]	–	greater IL-2 secretion than α-GalCer	–	–	–	–	–
CCCCCCCCCCCCCC[C@@H](O)[C@@H](O)[C@H](COC1OC(CO)C(O)C(O)C1O)NC(=O)CCCCCCCCCCCCCCCCCCCCCCCC1COC1 (stereo partly drawn) [DCD-153]	higher than the average serum IFNγ of C57BL/6J mice treated with α-GalCer	–	lower EC50s compared to α-GalCer	–	–	–	average iNKT cell isolated from the spleen compared to α-GalCer (iNKT cells [1]): higher than mice treated with α-GalCer
CCCCCCCCCCCCCC[C@@H](O)[C@@H](O)[C@H](COC1OC(CO)C(O)C(O)C1O)NC(=O)CCCCCCCCCCC1CC1C (stereo partly drawn) [DCD-106]	–	greater IL-2 secretion than α-GalCer	lower EC50s compared to α-GalCer	significantly higher levels	significantly higher levels	significantly higher levels	–
CCCCCCCCCCCCCC[C@@H](O)[C@@H](O)[C@H](COC1OC(CO)C(O)C(O)C1O)NC(=O)CCCCCCCCCCCCCCCCCCCCCCCCC12CC(F)(C1)C2 (stereo partly drawn) [DCD-156]	higher than the average serum IFNγ of C57BL/6J mice treated with α-GalCer	–	lower EC50s compared to α-GalCer	–	–	–	–
CCCCCCCCCCCCCC[C@@H](O)[C@@H](O)[C@H](COC1OC(CO)C(O)C(O)C1O)NC(=O)CCCCCCCCCCC12CC(F)(C1)C2 (stereo partly drawn) [DCD-101]	–	greater IL-2 secretion than α-GalCer	lower EC50s compared to α-GalCer	significantly higher levels	significantly higher levels	significantly higher levels	IL-2 secretion (mouse iTCR; ranking among tested compounds, at the lowest concentrations): highest IL-2 secretion at the lowest concentrations; expansion of immune (iNKT) cells in HFD mouse spleen (iNKT cells [2]): caused expansion of immune cells in HFD mouse spleen; also recorded: expand iNKT cells; secretion of IFNγ in the HFD mouse model (IFNγ; between two and twenty hours post-treatment): induce secretion of IFNγ; levels of serum IFNγ in the HFD model (IFNγ; two hours post injection, FIG. 5C): significantly increased levels of IFNγ; accumulation of senescent cells (C12FDG+) in eWAT (senescent cells in eWAT): effective in decreasing the accumulation of senescent cells in eWAT; also recorded: Senescent cell reduction in adipose tissue is observed
CCCCCCCCCCCCCCCCC[Si](C)(C)CCCCCCCC(=O)N[C@@H](COC1OC(CO)C(O)C(O)C1O)[C@H](O)[C@H](O)CCCCCCCCCCCCCC (stereo partly drawn) [DCD-157]	higher than the average serum IFNγ of C57BL/6J mice treated with α-GalCer	–	lower EC50s compared to α-GalCer	–	–	–	–
CCCCCCCCCCCCCC[C@@H](O)[C@@H](O)[C@H](COC1OC(CO)C(O)C(O)C1O)NC(=O)CCCCCCCCCCCCCCCCCCCCCCCC12CC(F)(C1)C2 (stereo partly drawn) [DCD-155]	higher than the average serum IFNγ of C57BL/6J mice treated with α-GalCer	–	lower EC50s compared to α-GalCer	–	–	–	–
CCCCCCCCCCCCCC[C@@H](O)[C@@H](O)[C@H](COC1OC(CO)C(O)C(O)C1O)n1cc(CCCCCCN(CCCCCCC)CCCCCCC)nn1 (stereo partly drawn) [DCD-104]	–	–	lower EC50s compared to α-GalCer	significantly higher levels	significantly higher levels	significantly higher levels	–
